Patent US10149477B2, “Substituted pyrimidinium compounds for combating animal pests” (BASF SE, priority 2014, dated 2018)

How the values were obtained:
Type in all cases: in vivo
[1] = system: Cotton Aphid (Aphis gossypii); assay: Cotton aphid, spray on infested cotton plants; details: 120 h, sprayed cotton plants, after 5 days, read-out: mortality in comparison with untreated controls
Method: (§1) The active compounds were formulated by a Tecan liquid handler in 100% cyclohexa-none as a 10,000 ppm solution supplied in tubes. The 10,000 ppm solution was serially diluted in 100% cyclohexanone to make interim solutions. These served as stock solu-tions for which final dilutions were made by the Tecan in 50% acetone:50% water (v/v) into 10 or 20 ml glass vials. A nonionic surfactant (Kinetic®) was included in the solution at a volume of 0.01% (v/v).
(§2) The vials were then inserted into an automated electrostatic sprayer equipped with an atomizing nozzle for application to plants/insects.
Cotton plants at the cotyledon stage were infested with aphids prior to treatment by placing a heavily infested leaf from the main aphid colony on top of each cotyledon. Aphids were allowed to transfer overnight to accomplish an infestation of 80-100 aphids per plant and the host leaf was removed. The infested plants were then sprayed by an automated electrostatic plant sprayer equipped with an atomizing spray nozzle. The plants were dried in the sprayer fume hood, removed from the sprayer, and then main-tained in a growth room under fluorescent lighting in a 24-hr photoperiod at 25° C. and 20-40% relative humidity. Aphid mortality on the treated plants, relative to mortality on untreated control plants, was determined after 5 days.

[2] = system: vetch aphid (Megoura viciae); assay: Vetch aphid, broad bean leaf disks in 24-well microtiter plates; details: foliar, 120 h, sprayed leaf disks, 5 days, read-out: mortality in comparison with untreated controls
Method: For evaluating control of vetch aphid (Megoura viciae) through contact or systemic means the test unit consisted of 24-well-microtiter plates containing broad bean leaf disks.
The compounds were formulated using a solution containing 75% v/v water and 25% v/v DMSO. Different concentrations of formulated compounds were sprayed onto the leaf disks at 2.5 μl, using a custom built micro atomizer, at two replications.
After application, the leaf disks were air-dried and 5-8 adult aphids placed on the leaf disks inside the microtiter plate wells. The aphids were then allowed to suck on the treated leaf disks and incubated at about 23+1° C. and about 50+5% relative humidity for 5 days. Aphid mortality and fecundity was then visually assessed.

[3] = system: Orchid Thrips (Dichromothrips corbetti); assay: Orchid thrips, floral-immersion technique; details: dipped orchid flowers, 72 hours after treatment, read-out: mortality in comparison with untreated controls
Method: Dichromothrips corbetti adults used for bioassay were obtained from a colony maintained continuously under laboratory conditions. For testing purposes, the test compound is diluted in a 1:1 mixture of acetone:water (vol:vol), plus 0.01% vol/vol Alkamuls® EL 620 surfactant.
Thrips potency of each compound was evaluated by using a floral-immersion technique. Plastic petri dishes were used as test arenas. All petals of individual, intact orchid flowers were dipped into treatment solution and allowed to dry. Treated flowers were placed into individual petri dishes along with about 20 adult thrips. The petri dishes were then covered with lids. All test arenas were held under continuous light and a temperature of about 28° C. for duration of the assay. After 3 days, the numbers of live thrips were counted on each flower, and along inner walls of each petri dish. The percent mortality was recorded 72 hours after treatment.

[4] = system: Rice Green Leafhopper (Nephotettix virescens); assay: Rice green leafhopper, sprayed rice seedlings; details: after 72 hours, read-out: mortality in comparison with untreated controls
Method: (§3) Rice seedlings were cleaned and washed 24 hours before spraying. The active compounds were formulated in 50:50 acetone:water (vol:vol), and 0.1% vol/vol surfactant (EL 620) was added. Potted rice seedlings were sprayed with 5 ml test solution, air dried, placed in cages and inoculated with 10 adults. Treated rice plants were kept at about 28-29° C. and relative humidity of about 50-60%. Percent mortality was recorded after 72 hours.

[5] = system: green peach aphid (Myzus persicae); assay: Green peach aphid, spray on infested bell pepper plants; details: 120 h, sprayed bell pepper plants, after 5 days, read-out: mortality in comparison with untreated controls
Method: as §1, with “b) The active” for “The active”
as §2
Bell pepper plants at the first true-leaf stage were infested prior to treatment by placing heavily infested leaves from the main colony on top of the treatment plants. Aphids were allowed to transfer overnight to accomplish an infestation of 30-50 aphids per plant and the host leaves were removed. The infested plants were then sprayed by an automated electrostatic plant sprayer equipped with an atomizing spray nozzle. The plants were dried in the sprayer fume hood, removed, and then maintained in a growth room under fluorescent lighting in a 24-hr photoperiod at about 25° C. and about 20-40% relative humidity. Aphid mortality on the treated plants, relative to mortality on untreated control plants, was determined after 5 days.

[6] = system: Cowpea Aphid (Aphis craccivora); assay: Cowpea aphid, spray on colonized cowpea plants; details: sprayed cowpea plants, after 72 hours, read-out: mortality in comparison with untreated controls
Method: The active compound is dissolved at the desired concentration in a mixture of 1:1 (vol:vol) distilled water: acetone. Surfactant (Kinetic® HV) is added at a rate of 0.01% (vol/vol). The test solution is prepared at the day of use.
Potted cowpea plants were colonized with approximately 30-50 aphids of various stages by manually transferring a leaf tissue cut from infested plant 24 hours before application. Plants were sprayed with the test solutions using a DeVilbiss® hand atom-izer at 20-30 psi (=1.38 to 2.07 bar) after the pest population has been checked. Treat-ed plants are maintained on light carts at about 25-26° C. Percent mortality was assessed after 72 hours.

[7] = system: Rice Brown Plant Hopper (Nilaparvata lugens); assay: Rice brown plant hopper, sprayed rice seedlings; details: after 72 hours, read-out: mortality in comparison with untreated controls
Method: as §3, with “(vol:vol)” for “(vol:vol),”

[8] = system: green peach aphid (Myzus persicae); assay: Green peach aphid, systemic, artificial diet in 96-well microtiter plates; details: 72 h, 3 days, read-out: mortality in comparison with untreated controls
Text: a) For evaluating control of green peach aphid (Myzus persicae) through systemic means the test unit consisted of 96-well-microtiter plates containing liquid artificial diet under an artificial membrane.
The compounds were formulated using a solution containing 75% v/v water and 25% v/v DMSO. Different concentrations of formulated compounds were pipetted into the aphid diet, using a custom built pipetter, at two replications.
After application, 5-8 adult aphids were placed on the artificial membrane inside the microtiter plate wells. The aphids were then allowed to suck on the treated aphid diet and incubated at about 23±1° C. and about 50±5% relative humidity for 3 days. Aphid mortality and fecundity was then visually assessed.

C[n+]1c([O-])c(-c2ccccc2)c(=O)n2c1SC(c1cnc(Cl)s1)C2 (centres unmarked) [compound 1]
> 75%: mortality at 300 ppm [1] | mortality at 2500 ppm [2] | mortality at 500 ppm [3] | mortality at 500 ppm [4] | mortality at 2500 ppm [5] | mortality at 500 ppm [6] | mortality at 500 ppm [7] | mortality at 2500 ppm [8]
